Laboratory results from patent US9181176B2, “7-[3,5-dihydroxy-2-(3-hydroxy-5-phenyl-pent-1-enyl)-cyclopentyl]-N-ethyl-hept-5-enamide (bimatoprost) in crystalline form II, methods for preparation, and methods for use thereof” (Allergan, Inc., priority 2009, dated 2015).

Key:
Type in all cases: physicochemical
[1] = Solid-state polymorphic transformation in laboratory stress study samples (DSC); conditions: 40° C., 70-day time-point
Method: Two Bimatoprost lots (X11192 and X10510) were subjected to a variety of experimental stress conditions at 40° C. (see Table 6). The experimental design included ambient air and argon headspaces, exposure to fluorescent light, and different surface-to-volume ratios. The 70-day time-point samples were analyzed by HPLC and DSC.

[2] = Solid-state polymorphic transformation in samples of the formal stability program (DSC, IR); conditions: stored 18 months at 25° C./60% RH
Method: The colored particle was separated from the white drug substance, and DSC was performed on both. In order to determine whether bimatoprost spontaneously converts from polymorph I to polymorph II at elevated temperatures (i.e. higher than the prescribed storage temperature), a number of other lots in the formal stability program were also analyzed by DSC. All the formal stability samples tested consisted of polymorph II. Since the control (frozen) samples from the same lots were previously analyzed by DSC with the results showing that none of them contained polymorph II, there is a clear indication that a polymorphic transformation had occurred under the stability conditions employed.

[3] = Determination of the aqueous solubility of polymorph II; conditions: 0.4% suspension rotated continuously over a weekend; supernatants assayed by HPLC
Method: The aqueous solubility of polymorph II was determined by preparing in duplicate a 0.4% suspension of a formal stability sample (lot X10510 stored at 25° C./60% RH for 23 months, confirmed as polymorph II). Temperature Program 1 (hold for 1.0 minute at 30° C. and then heat from 30° C. to 85° C. at 2.0° C. per minute), was used to test the 23-month stability sample by DSC to reconfirm the presence of only polymorph II (which was, indeed, the case). The suspension was allowed to rotate continuously over a weekend. The supernatants were assayed by HPLC using X11192 Secondary Reference Standard to determine the drug contents. […] Since the active pharmaceutical ingredient will be used in a formulation at a concentration that is only one-tenth of the aqueous solubility of the active pharmaceutical ingredient (as either polymorph), there is no effect of crystal habit on product characteristics or manufacturing process.

In the case of CCNC(=O)CCC/C=C\C[C@@H]1[C@@H](/C=C/[C@@H](O)CCc2ccccc2)[C@H](O)C[C@@H]1O [X11192, bimatoprost], the “polymorphic form after stress (DSC)” value ([1]; air or argon headspace, light or dark) is reported as “polymorph I”.

With CCNC(=O)CCC/C=C\C[C@@H]1[C@@H](/C=C/[C@@H](O)CCc2ccccc2)[C@H](O)C[C@@H]1O [X10510, bimatoprost] the “polymorphic form after stress (DSC)” value ([1]; ambient air headspace, regardless of light exposure) was “partial morphological conversion in which both polymorphs I and II were present simultaneously” and the “polymorphic form after storage (DSC and IR)” value [2] was “yielded substantial amounts of polymorph II”.

CCNC(=O)CCCC=CCC1C(O)CC(O)C1C=CC(O)CCc1ccccc1 (stereo not shown) [polymorph II, 7-[3,5-dihydroxy-2-(3-hydroxy-5-phenyl-pent-1-enyl)-cyclopentyl]-N-ethyl-hept-5-enamide] showed an aqueous solubility [3] of 0.3 % w/w.
